Source: PMC3382171 (PLoS ONE, 2012)

Assays:
Assay in all cases: biochemical
Design in all cases: Invitrogen SelectScreen kinase panel, percent inhibition at 1 uM, ATP at Km
Conditions in all cases: read-out: Invitrogen KSS %Inh at 1 µM
[1] = target: SGK (SGK1) (Homo sapiens, UniProt O00141)
Outline: (§1)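 Commercial kinase panel screens run with ATP at the Km for each kinase. Compounds tested at 1 µM final concentration; values are % inhibition of phosphorylation relative to control.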

[2] = target: IGF1R (Homo sapiens, UniProt P08069)
Outline: as §1

[3] = target: IRAK4 (Homo sapiens, UniProt Q9NWZ3)
Outline: as §1

[4] = target: TEK (Tie2) (Homo sapiens, UniProt Q02763)
Outline: as §1

[5] = target: PIK3CA/PIK3R1 (p110 alpha/p85 alpha) (Homo sapiens, UniProt P42336)
Outline: as §1

[6] = target: GSK3B (GSK3 beta) (Homo sapiens, UniProt P49841)
Outline: as §1

[7] = target: JAK3 (Homo sapiens, UniProt P52333)
Outline: as §1

[8] = target: CSNK1G1 (CK1 gamma 1) (Homo sapiens, UniProt Q9HCP0)
Outline: as §1

[9] = target: MET (cMet) (Homo sapiens, UniProt P08581)
Outline: as §1

[10] = target: MAP3K8 (COT) (Homo sapiens, UniProt P41279)
Outline: as §1

[11] = target: MAPK9 (JNK2) (Homo sapiens, UniProt P45984)
Outline: as §1

[12] = target: T1, CDC42 BPB (MRCKB) (Homo sapiens, UniProt Q9Y5S2)
T1 construct: gene CDC42BPB
Outline: as §1

[13] = target: MST1R (RON) (Homo sapiens, UniProt Q04912)
Outline: as §1

[14] = target: CHEK1 (CHK1) (Homo sapiens, UniProt O14757)
Outline: as §1

[15] = target: KIT T670I (Homo sapiens, UniProt P10721, T670I)
Outline: as §1

[16] = target: RAF1 (cRAF) Y340D Y341D (Homo sapiens, UniProt P04049, Y340D/Y341D)
Outline: as §1

[17] = target: PLK3 (Homo sapiens, UniProt Q9H4B4)
Outline: as §1

[18] = target: MAP2K6 (MKK6) (Homo sapiens, UniProt P52564)
Outline: as §1

[19] = target: AXL (Homo sapiens, UniProt P30530)
Outline: as §1

[20] = target: MET M1250T (Homo sapiens, UniProt P08581, M1250T)
Outline: as §1

[21] = target: RPS6KA4 (MSK2) (Homo sapiens, UniProt O75676)
Outline: as §1

[22] = target: FGFR1 (Homo sapiens, UniProt P11362)
Outline: as §1

Chain of IGF1R (P08069 whole entry): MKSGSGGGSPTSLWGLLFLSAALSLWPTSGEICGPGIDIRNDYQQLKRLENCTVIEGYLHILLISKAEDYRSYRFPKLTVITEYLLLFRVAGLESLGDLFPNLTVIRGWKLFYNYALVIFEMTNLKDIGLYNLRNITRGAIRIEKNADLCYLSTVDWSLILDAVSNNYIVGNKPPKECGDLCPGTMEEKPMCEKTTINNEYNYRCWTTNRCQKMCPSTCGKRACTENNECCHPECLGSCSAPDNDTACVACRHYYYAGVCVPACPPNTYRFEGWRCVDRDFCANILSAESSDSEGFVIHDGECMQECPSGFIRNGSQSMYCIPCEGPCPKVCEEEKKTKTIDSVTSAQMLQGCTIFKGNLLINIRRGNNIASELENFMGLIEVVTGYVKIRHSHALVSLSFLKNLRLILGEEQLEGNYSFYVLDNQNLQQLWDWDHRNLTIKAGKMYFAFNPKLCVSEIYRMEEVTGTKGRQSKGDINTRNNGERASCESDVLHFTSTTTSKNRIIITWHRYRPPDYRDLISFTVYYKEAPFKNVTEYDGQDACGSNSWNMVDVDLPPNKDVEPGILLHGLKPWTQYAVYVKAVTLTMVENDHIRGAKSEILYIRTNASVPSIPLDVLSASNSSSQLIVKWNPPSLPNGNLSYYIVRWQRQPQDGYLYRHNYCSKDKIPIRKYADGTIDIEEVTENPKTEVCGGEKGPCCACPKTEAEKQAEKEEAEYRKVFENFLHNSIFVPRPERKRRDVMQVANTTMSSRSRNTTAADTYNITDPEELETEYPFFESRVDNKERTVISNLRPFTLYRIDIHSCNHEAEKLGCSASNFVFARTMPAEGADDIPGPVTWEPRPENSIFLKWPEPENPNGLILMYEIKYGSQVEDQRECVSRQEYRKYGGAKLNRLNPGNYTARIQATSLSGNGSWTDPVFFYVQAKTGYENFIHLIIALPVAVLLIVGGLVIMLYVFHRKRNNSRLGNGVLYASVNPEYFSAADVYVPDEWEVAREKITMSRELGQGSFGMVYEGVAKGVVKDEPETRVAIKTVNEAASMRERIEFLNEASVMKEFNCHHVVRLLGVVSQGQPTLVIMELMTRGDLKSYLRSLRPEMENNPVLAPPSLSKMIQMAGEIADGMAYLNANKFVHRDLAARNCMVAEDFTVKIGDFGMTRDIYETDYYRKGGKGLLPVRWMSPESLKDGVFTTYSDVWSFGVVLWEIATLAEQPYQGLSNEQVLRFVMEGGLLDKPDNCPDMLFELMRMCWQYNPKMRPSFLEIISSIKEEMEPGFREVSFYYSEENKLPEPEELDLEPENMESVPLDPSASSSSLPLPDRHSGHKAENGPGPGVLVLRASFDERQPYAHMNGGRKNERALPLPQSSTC
Chain of TEK (Tie2) (Q02763 whole entry): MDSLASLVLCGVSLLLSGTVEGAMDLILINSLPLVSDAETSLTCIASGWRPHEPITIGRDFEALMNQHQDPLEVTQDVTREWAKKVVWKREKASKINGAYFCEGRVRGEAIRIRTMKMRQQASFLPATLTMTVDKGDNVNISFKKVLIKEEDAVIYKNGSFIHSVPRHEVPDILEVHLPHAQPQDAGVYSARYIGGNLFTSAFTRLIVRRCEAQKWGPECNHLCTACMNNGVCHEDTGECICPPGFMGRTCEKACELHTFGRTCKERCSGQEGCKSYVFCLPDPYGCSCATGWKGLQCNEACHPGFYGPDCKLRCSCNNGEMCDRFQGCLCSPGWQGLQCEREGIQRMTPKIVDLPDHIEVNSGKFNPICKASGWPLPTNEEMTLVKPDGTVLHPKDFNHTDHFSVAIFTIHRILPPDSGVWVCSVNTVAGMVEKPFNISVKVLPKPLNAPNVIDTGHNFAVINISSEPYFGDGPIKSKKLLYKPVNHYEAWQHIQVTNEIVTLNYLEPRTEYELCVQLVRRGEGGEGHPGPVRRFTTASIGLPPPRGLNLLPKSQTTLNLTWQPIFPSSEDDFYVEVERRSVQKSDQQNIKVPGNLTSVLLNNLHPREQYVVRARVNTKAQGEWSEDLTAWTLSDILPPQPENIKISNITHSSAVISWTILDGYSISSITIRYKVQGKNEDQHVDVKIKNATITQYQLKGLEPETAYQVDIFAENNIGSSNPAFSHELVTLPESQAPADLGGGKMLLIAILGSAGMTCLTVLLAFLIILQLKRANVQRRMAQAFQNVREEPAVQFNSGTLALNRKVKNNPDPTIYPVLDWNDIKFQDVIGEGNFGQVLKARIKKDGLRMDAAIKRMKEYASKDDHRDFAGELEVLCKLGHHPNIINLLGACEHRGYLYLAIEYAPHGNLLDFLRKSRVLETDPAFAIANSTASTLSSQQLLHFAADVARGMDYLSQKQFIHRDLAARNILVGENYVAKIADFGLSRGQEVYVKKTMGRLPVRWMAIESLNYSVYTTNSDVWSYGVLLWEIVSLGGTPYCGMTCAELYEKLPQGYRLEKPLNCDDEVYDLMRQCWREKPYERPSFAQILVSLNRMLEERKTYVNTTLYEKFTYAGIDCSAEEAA
Chain of RAF1 (cRAF) Y340D Y341D (P04049 whole entry Y340D/Y341D): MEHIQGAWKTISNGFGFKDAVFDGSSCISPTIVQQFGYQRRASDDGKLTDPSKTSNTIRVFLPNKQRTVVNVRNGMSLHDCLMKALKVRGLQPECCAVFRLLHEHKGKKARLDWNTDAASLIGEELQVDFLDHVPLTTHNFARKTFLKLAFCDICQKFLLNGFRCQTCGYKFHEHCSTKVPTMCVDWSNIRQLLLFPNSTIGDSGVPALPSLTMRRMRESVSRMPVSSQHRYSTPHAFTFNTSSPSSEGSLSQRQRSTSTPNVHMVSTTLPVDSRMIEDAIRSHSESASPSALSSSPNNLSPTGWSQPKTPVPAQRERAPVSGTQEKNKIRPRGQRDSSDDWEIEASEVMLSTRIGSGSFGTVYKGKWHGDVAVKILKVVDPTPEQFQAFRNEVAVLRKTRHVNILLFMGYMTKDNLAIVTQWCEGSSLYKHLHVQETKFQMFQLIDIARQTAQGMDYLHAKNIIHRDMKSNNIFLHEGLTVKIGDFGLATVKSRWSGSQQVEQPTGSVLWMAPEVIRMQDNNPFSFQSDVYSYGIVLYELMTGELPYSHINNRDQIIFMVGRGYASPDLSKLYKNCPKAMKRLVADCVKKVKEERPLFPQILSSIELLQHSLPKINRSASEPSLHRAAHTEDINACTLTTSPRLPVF
Chain of PIK3CA/PIK3R1 (p110 alpha/p85 alpha) (P42336 whole entry): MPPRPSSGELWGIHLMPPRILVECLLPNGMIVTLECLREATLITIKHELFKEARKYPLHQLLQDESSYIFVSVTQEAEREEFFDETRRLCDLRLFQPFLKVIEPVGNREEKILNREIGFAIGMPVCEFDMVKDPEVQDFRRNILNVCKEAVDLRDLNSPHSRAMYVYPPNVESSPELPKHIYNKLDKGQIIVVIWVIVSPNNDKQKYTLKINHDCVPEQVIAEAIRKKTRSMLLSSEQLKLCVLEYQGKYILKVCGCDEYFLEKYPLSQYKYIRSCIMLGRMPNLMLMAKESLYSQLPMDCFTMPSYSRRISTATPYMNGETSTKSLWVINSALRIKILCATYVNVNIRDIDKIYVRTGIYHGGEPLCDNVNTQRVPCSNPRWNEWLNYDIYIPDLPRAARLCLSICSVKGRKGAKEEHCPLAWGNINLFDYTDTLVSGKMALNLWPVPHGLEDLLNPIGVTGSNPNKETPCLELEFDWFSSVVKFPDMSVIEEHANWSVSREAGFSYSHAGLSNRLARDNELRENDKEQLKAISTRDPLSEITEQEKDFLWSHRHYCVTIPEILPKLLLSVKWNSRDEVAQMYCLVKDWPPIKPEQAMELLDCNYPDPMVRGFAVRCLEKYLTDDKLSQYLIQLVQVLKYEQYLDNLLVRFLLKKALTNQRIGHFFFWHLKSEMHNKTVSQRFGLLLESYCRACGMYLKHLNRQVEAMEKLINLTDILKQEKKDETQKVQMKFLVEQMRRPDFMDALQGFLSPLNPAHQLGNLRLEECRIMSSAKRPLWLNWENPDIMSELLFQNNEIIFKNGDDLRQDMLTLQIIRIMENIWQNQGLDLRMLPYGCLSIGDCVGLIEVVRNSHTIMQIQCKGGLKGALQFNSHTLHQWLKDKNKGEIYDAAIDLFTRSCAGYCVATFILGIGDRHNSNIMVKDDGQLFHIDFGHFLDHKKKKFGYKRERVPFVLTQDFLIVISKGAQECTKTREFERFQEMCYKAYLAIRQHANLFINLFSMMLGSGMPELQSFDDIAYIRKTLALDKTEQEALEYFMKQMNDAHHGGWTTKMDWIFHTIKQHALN
Chain of PIK3CA/PIK3R1 (p110 alpha/p85 alpha) (P27986 whole entry partner): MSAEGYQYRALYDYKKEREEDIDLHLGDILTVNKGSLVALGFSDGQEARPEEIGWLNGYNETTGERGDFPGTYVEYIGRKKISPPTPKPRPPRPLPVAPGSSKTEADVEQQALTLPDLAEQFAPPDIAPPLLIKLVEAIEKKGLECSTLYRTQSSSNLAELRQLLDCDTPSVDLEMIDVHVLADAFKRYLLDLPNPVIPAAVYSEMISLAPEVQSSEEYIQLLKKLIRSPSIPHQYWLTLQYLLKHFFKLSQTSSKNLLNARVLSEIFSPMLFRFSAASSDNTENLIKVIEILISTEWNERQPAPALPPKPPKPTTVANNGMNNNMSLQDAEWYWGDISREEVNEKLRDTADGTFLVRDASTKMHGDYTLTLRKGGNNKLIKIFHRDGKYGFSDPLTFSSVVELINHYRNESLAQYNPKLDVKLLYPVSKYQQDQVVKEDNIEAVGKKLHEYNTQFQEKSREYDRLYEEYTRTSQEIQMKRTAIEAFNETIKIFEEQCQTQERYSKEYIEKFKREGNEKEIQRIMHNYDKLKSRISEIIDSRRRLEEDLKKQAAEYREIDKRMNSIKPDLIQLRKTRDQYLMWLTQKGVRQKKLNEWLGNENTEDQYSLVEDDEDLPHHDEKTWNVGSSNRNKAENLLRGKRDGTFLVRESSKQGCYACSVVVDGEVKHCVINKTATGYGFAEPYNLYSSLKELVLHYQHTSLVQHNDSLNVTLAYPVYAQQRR

N#CCCNc1nccc(-c2cn(CC(F)F)nc2-c2cnc3[nH]ccc3c2)n1 [RAFi, PF-04880594]
inhibition at 1 µM [1]: 7% | inhibition at 1 µM [2]: 9% | inhibition at 1 µM [3]: -16% | inhibition at 1 µM [4]: 2% | inhibition at 1 µM [5]: 35% | inhibition at 1 µM [6]: 23% | inhibition at 1 µM [7]: 9% | inhibition at 1 µM [8]: 0% | inhibition at 1 µM [9]: 12% | inhibition at 1 µM [10]: 24% | inhibition at 1 µM [11]: 101% | inhibition at 1 µM [12]: 21% | inhibition at 1 µM [13]: 2% | inhibition at 1 µM [14]: 3% | inhibition at 1 µM [15]: 36% | inhibition at 1 µM [16]: 95% | inhibition at 1 µM [17]: 4% | inhibition at 1 µM [18]: 12% | inhibition at 1 µM [19]: -1% | inhibition at 1 µM [20]: 7% | inhibition at 1 µM [21]: 5% | inhibition at 1 µM [22]: 1%
